Results reported in the NIST ThermoML archive (doi:10.1016/j.fluid.2015.03.027).
Numbers after ± are expanded uncertainties.

What was measured:
[1] = 298.15 K; 101.33 kPa; Liquid; Vibrating tube method
[2] = refractive index (Na D-line) (dimensionless); conditions: 298.15 K; 101.33 kPa; Liquid; Standard Abbe refractometry

mass density [1] | SMILES | refractive index [2]
1036.68 ± 1.3 kg/m3 | CCCC[n+]1ccc(C)cc1.N#CC(=C=[N-])C#N [1-butyl-4-methylpyridinium tricyanomethanide] | 
679.48 ± 1 kg/m3 | CCCCCCC [heptane] | 1.38519 ± 0.00073
799.52 ± 1 kg/m3 | CCCO [propan-1-ol] | 1.38375 ± 0.00072

SMILES | mass density [1] | refractive index [2]
CC(C)=O [acetone] | 785.23 ± 1 kg/m3 | 1.356 ± 0.0007
c1ccncc1 [pyridine] | 982.85 ± 1 kg/m3 | 1.5094 ± 0.00072
